Publication PMC11243693, “Synthesis and Biological Evaluation of New Compounds with Nitroimidazole Moiety” (Molecules, 2024)
In brackets after ≈: the same amount, converted by molar mass.

Columns and labels:
Type in all cases: cell-based
[1] = system: Candida glabrata ATCC 15126; experiment: Broth microdilution, C. glabrata ATCC 15126; conditions: Cg 15126
Procedure: (§1) The antibacterial activity of the obtained thiosemicarbazides and hydrazide–hydrazones was determined by evaluating their ability to inhibit microbial growth in vitro using the broth microdilution method, according to the guidelines of the European Committee on Antimicrobial Susceptibility Testing (EUCAST). The method involved the preparation of microbial suspensions with a standardized density of 0.5 on the McFarland scale (equivalent to 1.5 × 10^8 colony-forming units/mL for bacteria and […] for fungi). A solution of the test substances was then prepared (initial concentration 1000 µg/mL, diluted in sterile Mueller-Hinton broth for bacteria or Mueller-Hinton with 2% glucose for fungi). The test was carried out in 96-well polystyrene flat-bottom plates (Medlab, Poland) with 100 µL of appropriate sterile microbiological medium in each well. The first wells were filled with 200 µL of the test substance, diluted to the initial concentration, and then double-decreasing dilutions were made under aseptic conditions using an automatic pipette. The final step was the addition of a 10-fold diluted microbial suspension of 2 µL. At the same time, the following controls were included: (a) medium control (100 µL of sterile medium without microorganisms added), (b) microbial viability control, (c) test substance control (dilutions without added micro-organisms), (d) positive control of the drug used in the clinic. The plates thus prepared were incubated for 18 ± 2 h at 35 ± 2 °C under conditions optimal for the growth of the test microorganisms. After incubation, the spectrophotometric absorbance at 570 nm in each well of the plate was read. The aim of this part of the study was to determine two parameters: the minimum inhibitory concentration (MIC) and the minimum bactericidal or fungicidal concentration (MBC/MFC) of the test compound. […] The MBC value was determined by adding 5 µL of the contents of each well of the plate to solid sterile MHA or MHA + 2%glc medium for bacteria and fungi, respectively. The area on the plate where 99.9% inhibition of microbial growth was observed indicated the lethal concentration. In addition, the quotient MBC(MFC)/MIC could be determined to assess the nature of the activity of the test substance. If MBC(MFC)/MIC was <4, the test substance was bactericidal/fungicidal, whereas if MBC(MFC)/MIC was ≥4, it was bacteriostatic/fungistatic. Amoxicillin (Glentham Life Sciences, USA) and nystatin (Glentham Life Sciences, USA) were used as the controls for this assay.
(§2) The test was performed either on bacteria, comprising: Gram-positive (Staphylococcus aureus ATCC 25923, Staphylococcus aureus ATCC 6538, Staphylococcus aureus ATCC 43300 methicillin-resistant MRSA, Staphylococcus epidermidis ATCC 12228, Micrococcus luteus ATCC 10240, Bacillus subtilis ATCC 6633, Bacillus cereus ATCC 10876) and Gram-negative (Escherichia coli ATCC 25922, Pseudomonas aeruginosa ATCC 27853, Proteus mirabilis ATCC 12453, Klebsiella pneumoniae ATCC 13883) or yeast (Candida parapsilosis ATCC 22019, Candida glabrata ATCC 90030, Candida krusei ATCC 14243, Candida glabrata ATCC 15126, Candida tropicalis ATCC 1369, Candida auris CDC B11903, Candida lusitaniae ATCC 3449) reference strains from the American Type Culture Collection (ATCC) or the Centers for Disease Control and Prevention (CDC).

[2] = system: Staphylococcus aureus ATCC 6538; experiment: Broth microdilution, S. aureus ATCC 6538; conditions: Sa 6538
Procedure: as §1, §2

[3] = system: Candida glabrata ATCC 90030; experiment: Broth microdilution, C. glabrata ATCC 90030; conditions: Cg 90030
Procedure: as §1, §2

Candida auris CDC B11903 = experiment: Broth microdilution, C. auris CDC B11903; conditions: Ca B11903
Procedure: as §1, §2

[4] = system: Candida lusitaniae ATCC 3449; experiment: Broth microdilution, C. lusitaniae ATCC 3449; conditions: Cl 3449
Procedure: as §1, §2

[5] = system: Bacillus subtilis ATCC 6633; experiment: Broth microdilution, B. subtilis ATCC 6633; conditions: Bs 6633; for MBC/MIC Ratio: <4 bactericidal, ≥4 bacteriostatic
Procedure: as §1, §2

[6] = system: Bacillus cereus ATCC 10876; experiment: Broth microdilution, B. cereus ATCC 10876; conditions: Bc 10876; for MBC/MIC Ratio: <4 bactericidal, ≥4 bacteriostatic
Procedure: as §1, §2

[7] = system: Staphylococcus aureus ATCC 25923; experiment: Broth microdilution, S. aureus ATCC 25923; conditions: Sa 25923
Procedure: as §1, §2

[8] = system: Staphylococcus aureus ATCC 43300 methicillin-resistant MRSA; experiment: Broth microdilution, S. aureus ATCC 43300 MRSA; conditions: Sa 43300 MRSA
Procedure: as §1, §2

[9] = system: Micrococcus luteus ATCC 10240; experiment: Broth microdilution, M. luteus ATCC 10240; conditions: Ml 10240; for MBC/MIC Ratio: <4 bactericidal, ≥4 bacteriostatic
Procedure: as §1, §2

[10] = system: Candida krusei ATCC 14243; experiment: Broth microdilution, C. krusei ATCC 14243; conditions: Ck 14243
Procedure: as §1, §2

[11] = system: Candida parapsilosis ATCC 22019; experiment: Broth microdilution, C. parapsilosis ATCC 22019; conditions: Cp 22019
Procedure: as §1, §2

[12] = system: Staphylococcus epidermidis ATCC 12228; experiment: Broth microdilution, S. epidermidis ATCC 12228; conditions: Se 12228; for MBC/MIC Ratio: <4 bactericidal, ≥4 bacteriostatic
Procedure: as §1, §2

[13] = system: Candida tropicalis ATCC 1369; experiment: Broth microdilution, C. tropicalis ATCC 1369; conditions: Ct 1369
Procedure: as §1, §2

`Cn1cc([N+](=O)[O-])nc1C(=O)NNC(=S)Nc1cccc(F)c1` [Compound 7] was tested, and the MIC [1] was greater than 1000 µg/mL, the MBC [2] was greater than 1000 µg/mL and the MIC [2] was 500 µg/mL (≈ 1480 µM). The MIC [3] was greater than 1000 µg/mL, the MIC (Candida auris CDC B11903) was greater than 1000 µg/mL and the MIC [4] was greater than 1000 µg/mL. For the same compound, the MBC [5] was 250 µg/mL (≈ 739 µM), the MIC [5] was 125 µg/mL (≈ 369 µM) and the “MBC/MIC Ratio” value [5] was 2. For the same compound, the MBC [6] was 500 µg/mL (≈ 1480 µM), the MIC [6] was 500 µg/mL (≈ 1480 µM) and the “MBC/MIC Ratio” value [6] was 1. It also gave an MBC [7] greater than 1000 µg/mL, an MIC [7] of 250 µg/mL (≈ 739 µM) and an MBC [8] greater than 1000 µg/mL. For the same compound, the MIC [8] was 500 µg/mL (≈ 1480 µM), the MBC [9] was 250 µg/mL (≈ 739 µM) and the MIC [9] was 250 µg/mL (≈ 739 µM). The “MBC/MIC Ratio” value [9] was 1, the MIC [10] was greater than 1000 µg/mL and the MIC [11] was greater than 1000 µg/mL. For the same compound, the MBC [12] was greater than 1000 µg/mL, the MIC [12] was 250 µg/mL (≈ 739 µM) and the MFC [13] was greater than 1000 µg/mL. The MIC [13] was 250 µg/mL (≈ 739 µM).

`Cn1cc([N+](=O)[O-])nc1C(=O)NNC(=S)Nc1ccc(Cl)cc1` [Compound 5] showed an MIC [1] greater than 1000 µg/mL, an MBC [2] greater than 1000 µg/mL and an MIC [2] of 125 µg/mL (≈ 352 µM). It also gave an MIC [3] greater than 1000 µg/mL, an MIC (Candida auris CDC B11903) greater than 1000 µg/mL and an MIC [4] greater than 1000 µg/mL. For the same compound, the MBC [5] was 62.5 µg/mL (≈ 176 µM), the MIC [5] was 62.5 µg/mL (≈ 176 µM) and the “MBC/MIC Ratio” value [5] was 1. For the same compound, the MBC [6] was 250 µg/mL (≈ 705 µM), the MIC [6] was 250 µg/mL (≈ 705 µM) and the “MBC/MIC Ratio” value [6] was 1. The MBC [7] was greater than 1000 µg/mL, the MIC [7] was 62.5 µg/mL (≈ 176 µM) and the MBC [8] was greater than 1000 µg/mL. The MIC [8] was 125 µg/mL (≈ 352 µM), the MBC [9] was 125 µg/mL (≈ 352 µM) and the MIC [9] was 125 µg/mL (≈ 352 µM). For the same compound, the “MBC/MIC Ratio” value [9] was 1, the MIC [10] was greater than 1000 µg/mL and the MFC [11] was greater than 1000 µg/mL. The MIC [11] was 62.5 µg/mL (≈ 176 µM), the MBC [12] was 125 µg/mL (≈ 352 µM) and the MIC [12] was 125 µg/mL (≈ 352 µM). The “MBC/MIC Ratio” value [12] was 1, the MFC [13] was greater than 1000 µg/mL and the MIC [13] was 500 µg/mL (≈ 1410 µM).

`Cn1cc([N+](=O)[O-])nc1C(=O)NNC(=S)Nc1ccc(F)cc1` [Compound 8] was tested, and the MIC [1] was greater than 1000 µg/mL, the MIC [2] was greater than 1000 µg/mL and the MIC [3] was greater than 1000 µg/mL. It also gave an MIC (Candida auris CDC B11903) greater than 1000 µg/mL, an MIC [4] greater than 1000 µg/mL and an MBC [5] of 250 µg/mL (≈ 739 µM). For the same compound, the MIC [5] was 250 µg/mL (≈ 739 µM), the “MBC/MIC Ratio” value [5] was 1 and the MBC [6] was 1000 µg/mL (≈ 2960 µM). For the same compound, the MIC [6] was 500 µg/mL (≈ 1480 µM), the “MBC/MIC Ratio” value [6] was 2 and the MBC [7] was greater than 1000 µg/mL. The MIC [7] was 250 µg/mL (≈ 739 µM), the MBC [8] was greater than 1000 µg/mL and the MIC [8] was 1000 µg/mL (≈ 2960 µM). The MBC [9] was 500 µg/mL (≈ 1480 µM), the MIC [9] was 250 µg/mL (≈ 739 µM) and the “MBC/MIC Ratio” value [9] was 2. It also gave an MIC [10] greater than 1000 µg/mL, an MFC [11] greater than 1000 µg/mL and an MIC [11] of 1000 µg/mL (≈ 2960 µM). The MBC [12] was 500 µg/mL (≈ 1480 µM), the MIC [12] was 500 µg/mL (≈ 1480 µM) and the “MBC/MIC Ratio” value [12] was 1. The MFC [13] was greater than 1000 µg/mL and the MIC [13] was 250 µg/mL (≈ 739 µM).

Work on `COc1ccc(NC(=S)NNC(=O)c2nc([N+](=O)[O-])cn2C)cc1` [Compound 11] yielded an MIC [1] greater than 1000 µg/mL, an MBC [2] greater than 1000 µg/mL and an MIC [2] of 1000 µg/mL (≈ 2850 µM). For the same compound, the MIC [3] was greater than 1000 µg/mL, the MIC (Candida auris CDC B11903) was greater than 1000 µg/mL and the MIC [4] was greater than 1000 µg/mL. For the same compound, the MBC [5] was 250 µg/mL (≈ 714 µM), the MIC [5] was 250 µg/mL (≈ 714 µM) and the “MBC/MIC Ratio” value [5] was 1. For the same compound, the MBC [6] was 250 µg/mL (≈ 714 µM), the MIC [6] was 250 µg/mL (≈ 714 µM) and the “MBC/MIC Ratio” value [6] was 1. The MBC [7] was greater than 1000 µg/mL, the MIC [7] was 500 µg/mL (≈ 1430 µM) and the MBC [8] was greater than 1000 µg/mL. The MIC [8] was 1000 µg/mL (≈ 2850 µM), the MBC [9] was 500 µg/mL (≈ 1430 µM) and the MIC [9] was 250 µg/mL (≈ 714 µM). For the same compound, the “MBC/MIC Ratio” value [9] was 2, the MIC [10] was greater than 1000 µg/mL and the MFC [11] was greater than 1000 µg/mL. For the same compound, the MIC [11] was 250 µg/mL (≈ 714 µM), the MBC [12] was greater than 1000 µg/mL and the MIC [12] was 500 µg/mL (≈ 1430 µM). For the same compound, the MFC [13] was greater than 1000 µg/mL and the MIC [13] was 250 µg/mL (≈ 714 µM).

`Cc1ccccc1NC(=S)NNC(=O)c1nc([N+](=O)[O-])cn1C` [Compound 15] was tested, and the MIC [1] was greater than 1000 µg/mL, the MBC [2] was greater than 1000 µg/mL and the MIC [2] was 250 µg/mL (≈ 748 µM). For the same compound, the MIC [3] was greater than 1000 µg/mL, the MIC (Candida auris CDC B11903) was greater than 1000 µg/mL and the MIC [4] was greater than 1000 µg/mL. For the same compound, the MBC [5] was 1000 µg/mL (≈ 2990 µM), the MIC [5] was 1000 µg/mL (≈ 2990 µM) and the “MBC/MIC Ratio” value [5] was 1. For the same compound, the MBC [6] was 500 µg/mL (≈ 1500 µM), the MIC [6] was 500 µg/mL (≈ 1500 µM) and the “MBC/MIC Ratio” value [6] was 1. The MBC [7] was greater than 1000 µg/mL, the MIC [7] was 500 µg/mL (≈ 1500 µM) and the MBC [8] was greater than 1000 µg/mL. The MIC [8] was 250 µg/mL (≈ 748 µM), the MBC [9] was 500 µg/mL (≈ 1500 µM) and the MIC [9] was 500 µg/mL (≈ 1500 µM). For the same compound, the “MBC/MIC Ratio” value [9] was 1, the MIC [10] was greater than 1000 µg/mL and the MIC [11] was greater than 1000 µg/mL. The MBC [12] was 500 µg/mL (≈ 1500 µM), the MIC [12] was 500 µg/mL (≈ 1500 µM) and the “MBC/MIC Ratio” value [12] was 1. For the same compound, the MFC [13] was greater than 1000 µg/mL and the MIC [13] was 500 µg/mL (≈ 1500 µM).
